Patent publication US9951021B2, “Compounds for inhibiting c-Myc/Max/DNA complex formation” (NATIONAL CANCER CENTER, priority 2016, dated 2018)

Target: T1, recombinant c-Myc/Max (Homo sapiens, UniProt P01106+P61244)
T1 construct: made in house
Experiment: Electrophoretic mobility shift assay (EMSA): inhibitory activity on DNA binding of recombinant c-Myc/Max
Details: read-out: protein assay IC50
Method: 1) Preparation of Recombinant c-Myc and Max Proteins
Recombinant proteins were prepared as described in the following references: K. C. Jung et al., Fatty Acids, Inhibitors for the DNA Binding of c-Myc/Max Dimer, Suppress Proliferation and Induce Apoptosis of Differentiated HL-60 Human Leukemia Cell, Leukemia, 2006, 20(1), 122-7 or Kyung-Chae Jeong et al., Small-Molecule Inhibitors of c-Myc Transcriptional Factor Suppress Proliferation and Induce Apoptosis of Promyelocytic Leukemia Cell via Cell Cycle Arrest, Mol. BioSyst., 2010, 6, 1503-1509.
2) Electrophoretic Mobility Shift Assay (EMSA)
The inhibitory activity of each candidate compound on DNA binding of recombinant c-Myc/Max was measured using an electrophoretic mobility shift assay (EMSA). The ratio of protein-DNA complexes in each sample was evaluated by measuring band intensity. The oligonucleotides (E-box) corresponding to the consensus binding site of Myc/Max were dimerized through an annealing process. The protein mixture was incubated at room temperature for 5 minutes, and a DMSO solution containing each candidate compound was added thereto. The mixture was further incubated for 5 minutes, and the biotinylated DNA was added. To achieve a state of equilibrium, the final mixture was incubated at room temperature for 10 minutes. The protein-DNA complexes were separated from unbound free DNA by pre-electrophoresis using 8% polyacrylamide gel and 1×TBE buffer. After pre-electrophoresis, electrophoresis was performed at 120 V for 1 hour in 1×TBE buffer. Each band was visualized using HRP-conjugated streptavidin and an ECL solution, and band intensity was measured using image analysis software.

T1 sequence (P01106 whole entry): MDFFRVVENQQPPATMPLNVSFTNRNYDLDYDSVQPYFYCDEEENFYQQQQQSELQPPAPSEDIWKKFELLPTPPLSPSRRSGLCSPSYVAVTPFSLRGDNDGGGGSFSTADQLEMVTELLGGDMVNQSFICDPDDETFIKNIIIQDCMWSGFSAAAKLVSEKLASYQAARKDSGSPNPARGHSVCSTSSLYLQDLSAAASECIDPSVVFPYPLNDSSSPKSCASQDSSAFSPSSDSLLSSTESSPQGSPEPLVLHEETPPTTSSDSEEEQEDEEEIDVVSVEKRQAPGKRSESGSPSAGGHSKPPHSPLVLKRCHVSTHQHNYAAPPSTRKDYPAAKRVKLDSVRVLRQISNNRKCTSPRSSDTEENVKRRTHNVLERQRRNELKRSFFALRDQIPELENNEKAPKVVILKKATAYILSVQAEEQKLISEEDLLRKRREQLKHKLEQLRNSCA
T1 sequence (P61244 whole entry): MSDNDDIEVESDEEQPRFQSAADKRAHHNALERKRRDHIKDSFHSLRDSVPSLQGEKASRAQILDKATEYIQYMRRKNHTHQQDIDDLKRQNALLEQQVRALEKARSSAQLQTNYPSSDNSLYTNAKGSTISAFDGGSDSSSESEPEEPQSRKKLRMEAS

SMILES | IC50
CC(=O)c1c([S+]([O-])Cc2c(F)c(F)c(F)c(F)c2F)[nH]c2c(Br)ccc(Cl)c2c1=O (stereo not shown) [Compound 78, 3-acetyl-8-bromo-5-chloro-2-(((perfluorophenyl)methyl)sulfinyl)quinolin-4(1H)-one] | < 1 µM
CC(=O)c1c([S+](C)[O-])n(C(=O)c2ccc(Br)cc2)c2c(Br)ccc(Cl)c2c1=O (stereo not shown) [Compound 9, 3-acetyl-8-bromo-1-(4-bromobenzoyl)-5-chloro-2-(methylsulfinyl)quinolin-4(1H)-one] | < 1 µM
COc1ccccc1[S+]([O-])c1[nH]c2c(Br)ccc(Cl)c2c(=O)c1C(C)=O (stereo not shown) [Compound 15, 3-acetyl-8-bromo-5-chloro-2-((2-methoxyphenyl)sulfinyl)quinolin-4(1H)-one] | < 1 µM
CC(=O)c1c([S+](C)[O-])[nH]c2c(Br)ccc(Cl)c2c1=O (stereo not shown) [Compound 1, 3-acetyl-8-bromo-5-chloro-2-(methylsulfinyl)quinolin-4(1H)-one] | < 1 µM
CC(=O)c1c([S+]([O-])Cc2ccc(I)cc2)[nH]c2c(Cl)ccc(Cl)c2c1=O (stereo not shown) [Compound 83, 3-acetyl-5,8-dichloro-2-((4-iodobenzyl)sulfinyl)quinolin-4(1H)-one] | < 1 µM
COc1cc(S(F)(F)(F)(F)F)ccc1C[S+]([O-])c1[nH]c2c(Br)ccc(Cl)c2c(=O)c1C(C)=O (stereo not shown) [Compound 75, 3-acetyl-8-bromo-5-chloro-2-((2-methoxy-4-(pentafluoro-λ6-sulfanyl)benzyl)sulfinyl)quinolin-4(1H)-one] | < 1 µM
CC(=O)c1c(SC(C)C)[nH]c2c(Br)ccc(Cl)c2c1=O [Compound 24, 3-acetyl-8-bromo-5-chloro-2-(isopropylthio)quinolin-4(1H)-one] | < 1 µM
COc1cccc2[nH]c(SCc3ccc(S(F)(F)(F)(F)F)cc3)c(C(C)=O)c(=O)c12 [Compound 92, 3-acetyl-5-methoxy-2-((4-(pentafluoro-λ6-sulfanyl)benzyl)thio)quinolin-4(1H)-one] | < 1 µM
CC(=O)c1c([S+]([O-])Cc2ccc([S+]([O-])C(F)(F)F)cc2)[nH]c2c(Br)ccc(Cl)c2c1=O (stereo not shown) [Compound 64, 3-acetyl-8-bromo-5-chloro-2-((4-((trifluoromethyl)sulfinyl)benzyl)sulfinyl)quinolin-4(1H)-one] | < 1 µM
CC(=O)c1c([S+]([O-])C(C)C)[nH]c2c(Br)ccc(Cl)c2c1=O (stereo not shown) [Compound 25, 3-acetyl-8-bromo-5-chloro-2-(isopropylsulfinyl)quinolin-4(1H)-one] | < 1 µM
CC(=O)c1c([S+]([O-])Cc2ccc(C#N)cc2)[nH]c2c(Br)ccc(Cl)c2c1=O (stereo not shown) [Compound 73, 4-(((3-acetyl-8-bromo-5-chloro-4-oxo-1,4-dihydroquinolin-2-yl)sulfinyl)methyl)benzonitrile] | < 1 µM
CC(C)C(=O)c1c([S+]([O-])Cc2ccc(SC(F)(F)F)cc2)[nH]c2c(F)ccc(F)c2c1=O (stereo not shown) [Compound 85, 5,8-difluoro-3-isobutyryl-2-((4-((trifluoromethyl)thio)benzyl)sulfinyl)quinolin-4(1H)-one] | < 1 µM
CC(=O)c1c(SCc2ccccc2)n(C(=O)c2ccc(Br)cc2)c2c(Br)ccc(Cl)c2c1=O [Compound 23, 3-acetyl-2-(benzylthio)-8-bromo-1-(4-bromobenzoyl)-5-chloroquinolin-4(1H)-one] | < 1 µM
CSc1[nH]c2ccc(F)cc2c(=O)c1C(C)=O [Compound 8, 1-(6-fluoro-4-hydroxy-2-(methylthio)quinolin-3-yl)ethan-1-one] | < 1 µM
Cc1cc(C[S+]([O-])c2[nH]c3c(Cl)ccc(Cl)c3c(=O)c2C(=O)C(C)C)no1 (stereo not shown) [Compound 86, 5,8-dichloro-3-isobutyryl-2-(((5-methylisoxazol-3-yl)methyl)sulfinyl)quinolin-4(1H)-one] | < 1 µM
CC(=O)c1c([S+]([O-])Cc2ccc(F)c(Cl)c2)[nH]c2c(Br)ccc(Cl)c2c1=O (stereo not shown) [Compound 31, 3-acetyl-8-bromo-5-chloro-2-((3-chloro-4-fluorobenzyl)sulfinyl)quinolin-4(1H)-one] | < 1 µM
CSc1c(C(C)=O)c(=O)c2c(Cl)ccc(Br)c2n1C [Compound 5, 3-acetyl-8-bromo-5-chloro-1-methyl-2-(methylthio)quinolin-4(1H)-one] | < 1 µM
CC(=O)c1c(SCc2cc(F)cc(F)c2)[nH]c2c(Br)ccc(Cl)c2c1=O [Compound 45, 3-acetyl-8-bromo-5-chloro-2-((3,5-difluorobenzyl)thio)quinolin-4(1H)-one] | < 1 µM
Cc1cc(C[S+]([O-])c2[nH]c3c(Cl)ccc(Cl)c3c(=O)c2C(=O)c2ccccc2)no1 (stereo not shown) [Compound 88, 3-benzoyl-5,8-dichloro-2-(((5-methylisoxazol-3-yl)methyl)sulfinyl)quinolin-4(1H)-one] | < 1 µM

SMILES | IC50
CC(=O)c1c([S+](C)[O-])[nH]c2c(Cl)ccc(Cl)c2c1=O (stereo not shown) [Compound 6, 3-acetyl-5,8-dichloro-2-(methylsulfinyl)quinolin-4(1H)-one] | < 1 µM
CC(=O)c1c([S+]([O-])Cc2ccc(C(F)(F)F)nc2C)[nH]c2c(Br)ccc(Cl)c2c1=O (stereo not shown) [Compound 102, 3-acetyl-8-bromo-5-chloro-2-(((2-methyl-6-(trifluoromethyl)pyridin-3-yl)methyl)sulfinyl)quinolin-4(1H)-one] | < 1 µM
CC(=O)c1c(Sc2ccccc2)[nH]c2c(Br)ccc(Cl)c2c1=O [Compound 12, 3-acetyl-8-bromo-5-chloro-2-(phenylthio)quinolin-4(1H)-one] | < 1 µM
CC(=O)c1c([S+]([O-])Cc2ccc(S(F)(F)(F)(F)F)cc2F)[nH]c2c(Br)ccc(Cl)c2c1=O (stereo not shown) [Compound 69, 3-acetyl-8-bromo-5-chloro-2-((2-fluoro-4-(pentafluoro-16-sulfanyl)benzyl)sulfinyl)quinolin-4(1H)-one] | < 1 µM
CC(=O)c1c(SCc2ccc([N+](=O)[O-])cc2)[nH]c2c(Br)ccc(Cl)c2c1=O [Compound 32, 3-acetyl-8-bromo-5-chloro-2-((4-nitrobenzyl)thio)quinolin-4(1H)-one] | < 1 µM
Cc1cc(C[S+]([O-])c2[nH]c3c(Br)ccc(Cl)c3c(=O)c2C(=O)C(C)C)no1 (stereo not shown) [Compound 95, 8-bromo-5-chloro-3-isobutyryl-2-(((5-methylisoxazol-3-yl)methyl)sulfinyl)quinolin-4(1H)-one] | < 1 µM
CC(=O)c1c([S+]([O-])Cc2ccccc2)n(C(=O)c2ccc(Br)cc2)c2c(Br)ccc(Cl)c2c1=O (stereo not shown) [Compound 20, 3-acetyl-2-(benzylsulfinyl)-8-bromo-1-(4-bromobenzoyl)-5-chloroquinolin-4(1H)-one] | < 1 µM
CC(=O)c1c([S+]([O-])Cc2cccnc2)[nH]c2c(Br)ccc(Cl)c2c1=O (stereo not shown) [Compound 84, 3-acetyl-8-bromo-5-chloro-2-((pyridin-3-ylmethyl)sulfinyl)quinolin-4(1H)-one] | < 1 µM
CC(=O)c1c(S)[nH]c2c(Br)ccc(Cl)c2c1=O [Compound 62, 3-acetyl-8-bromo-5-chloro-2-mercaptoquinolin-4(1H)-one] | < 1 µM
CC(=O)c1c(SCc2cccc(I)c2)[nH]c2c(Br)ccc(Cl)c2c1=O [Compound 47, 3-acetyl-8-bromo-5-chloro-2-((3-iodobenzyl)thio)quinolin-4(1H)-one] | < 1 µM
CSc1c(C(C)=O)c(=O)c2cc(F)ccc2n1C [Compound 7, 3-acetyl-6-fluoro-1-methyl-2-(methylthio)quinolin-4(1H)-one] | < 1 µM
CC(=O)c1c([S+](C)[O-])n(S(=O)(=O)C(F)(F)F)c2c(Br)ccc(Cl)c2c1=O (stereo not shown) [Compound 36, 3-acetyl-8-bromo-5-chloro-2-(methylsulfinyl)-1-((trifluoromethyl)sulfonyl)quinolin-4(1H)-one] | < 1 µM
CC(=O)c1c([S+]([O-])Cc2nonc2C)[nH]c2c(Br)ccc(Cl)c2c1=O (stereo not shown) [Compound 106, 3-acetyl-8-bromo-5-chloro-2-(((4-methyl-1,2,5-oxadiazol-3-yl)methyl)sulfinyl)quinolin-4(1H)-one] | < 1 µM
CSc1c(C(C)=O)c(=O)c2c(Cl)ccc(Br)c2n1C(C)=O [Compound 18, 1,1′-(8-bromo-5-chloro-2-(methylthio)-4-oxoquinoline-1,3(4H)-diyl)bis(ethan-1-one)] | < 1 µM
CC(=O)c1c([S+]([O-])Cc2ccc(C(F)(F)F)o2)[nH]c2c(Br)ccc(Cl)c2c1=O (stereo not shown) [Compound 72, 3-acetyl-8-bromo-5-chloro-2-(((5-(trifluoromethyl)furan-2-yl)methyl)sulfinyl)quinolin-4(1H)-one] | < 1 µM
COc1ccccc1Sc1[nH]c2c(Br)ccc(Cl)c2c(=O)c1C(C)=O [Compound 14, 3-acetyl-8-bromo-5-chloro-2-((2-methoxyphenyl)thio)quinolin-4(1H)-one] | < 1 µM
CC(=O)c1c([S+]([O-])c2ccc(Br)cc2)[nH]c2c(Br)ccc(Cl)c2c1=O (stereo not shown) [Compound 17, 3-acetyl-8-bromo-2-((4-bromophenyl)sulfinyl)-5-chloroquinolin-4(1H)-one] | < 1 µM
CC(=O)c1c([S+]([O-])Cc2ccccc2C#N)[nH]c2c(Br)ccc(Cl)c2c1=O (stereo not shown) [Compound 58, 2-(((3-acetyl-8-bromo-5-chloro-4-oxo-1,4-dihydroquinolin-2-yl)sulfinyl)methyl)benzonitrile] | < 1 µM
